Reference: patent US20260285875A1, “INHIBITORS OF PARG” (858 Therapeutics, Inc., priority 2023, published 2026)

Molecular target: T1, cellular PARG (Homo sapiens, UniProt Q86W56)
T1 construct: endogenous in cells; host or cells: HeLa
Assay: Nuclear PAR accumulation assay (immunofluorescence high-content imaging, MMS-treated HeLa cells)
Type: cell-based
Details: 1 hour compound then MMS 50 μg/mL for an additional hour
How it was run: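 HeLa cells pretreated with compound for 1 h at 37° C, then given 50 μg/mL MMS for another hour. After methanol fixation, PAR was immunostained with DAPI nuclear counterstain; per-nucleus intensity and percent PAR-positive cells were imaged at 20× (≥1,000 cells/well). IC50 from four-parameter logistic fit.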

T1 sequence (Q86W56 whole entry): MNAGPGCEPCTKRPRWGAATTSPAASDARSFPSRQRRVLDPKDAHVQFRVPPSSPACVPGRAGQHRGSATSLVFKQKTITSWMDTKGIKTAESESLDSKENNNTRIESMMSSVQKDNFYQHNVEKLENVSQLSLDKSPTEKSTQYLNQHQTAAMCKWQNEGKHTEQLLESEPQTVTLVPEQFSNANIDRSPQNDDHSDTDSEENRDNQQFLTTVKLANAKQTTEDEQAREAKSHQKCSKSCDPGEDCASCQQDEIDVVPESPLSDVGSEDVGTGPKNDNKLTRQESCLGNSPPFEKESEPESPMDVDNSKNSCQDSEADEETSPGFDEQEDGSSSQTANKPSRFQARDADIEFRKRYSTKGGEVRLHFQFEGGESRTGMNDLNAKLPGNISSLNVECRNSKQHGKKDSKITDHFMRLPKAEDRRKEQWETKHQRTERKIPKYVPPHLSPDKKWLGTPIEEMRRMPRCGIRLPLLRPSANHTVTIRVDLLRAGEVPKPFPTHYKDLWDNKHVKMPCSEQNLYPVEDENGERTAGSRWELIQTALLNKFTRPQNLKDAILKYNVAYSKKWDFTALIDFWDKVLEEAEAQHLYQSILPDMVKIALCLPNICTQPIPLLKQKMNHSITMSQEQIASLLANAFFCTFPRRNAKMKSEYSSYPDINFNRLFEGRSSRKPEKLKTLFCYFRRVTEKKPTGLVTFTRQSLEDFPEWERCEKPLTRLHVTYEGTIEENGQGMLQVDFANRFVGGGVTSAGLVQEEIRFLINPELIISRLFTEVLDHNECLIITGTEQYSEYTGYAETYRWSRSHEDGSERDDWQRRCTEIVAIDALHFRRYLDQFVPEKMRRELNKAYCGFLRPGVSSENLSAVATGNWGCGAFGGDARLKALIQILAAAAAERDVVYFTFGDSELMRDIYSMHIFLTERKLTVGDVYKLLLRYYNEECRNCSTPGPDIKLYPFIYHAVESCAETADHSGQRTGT

SMILES | IC50 [nM]
CCN1C(=O)c2cc(S(=O)(=O)NC3(C)CC3)ccc2N2C1=NC[C@H]2C#Cc1cc(CN(C)C)nn1C [Example 195, (R)-1-((3-((dimethylamino)methyl)-1-methyl-1H-pyrazol-5-yl)ethynyl)-4-ethyl-N-(1-methylcyclopropyl)-5-oxo-1,2,4,5-tetrahydroimidazo[1,2-a]quinazoline-7-sulfonamide] | < 100
C#C[C@@H]1CN=C2N(Cc3cnn4c3CNCC4)C(=O)c3cc(S(=O)(=O)NC4(C)CC4)cc(Cl)c3N21 [Example 297, (R)-9-chloro-1-ethynyl-N-(1-methylcyclopropyl)-5-oxo-4-((4,5,6,7-tetrahydropyrazolo[1,5-a]pyrazin-3-yl)methyl)-1,2,4,5-tetrahydroimidazo[1,2-a]quinazoline-7-sulfonamide] | < 100
Cc1cc(C#C[C@@H]2CN=C3N(C)C(=O)c4cc(S(=O)(=O)NC5(C)CC5)ccc4N32)ccn1 [Example 216, (R)-4-methyl-N-(1-methylcyclopropyl)-1-((2-methylpyridin-4-yl)ethynyl)-5-oxo-1,2,4,5-tetrahydroimidazo[1,2-a]quinazoline-7-sulfonamide] | < 100
CN1C(=O)c2cc(S(=O)(=O)NC3(C)CC3)ccc2N2C1=NC[C@H]2C#Cc1c2ccccc2nn1C [Example 174, (R)-4-methyl-1-((2-methyl-2H-indazol-3-yl)ethynyl)-N-(1-methylcyclopropyl)-5-oxo-1,2,4,5-tetrahydroimidazo[1,2-a]quinazoline-7-sulfonamide] | < 100
CN1C(=O)c2cc(S(=O)(=O)NC3(C)CC3)cc(Br)c2N2C1=NC[C@H]2C#CC1CC1 [Example 34, (R)-9-bromo-1-(cyclopropylethynyl)-4-methyl-N-(1-methylcyclopropyl)-5-oxo-1,2,4,5-tetrahydroimidazo[1,2-a]quinazoline-7-sulfonamide] | < 100
CN1C(=O)c2cc(S(=O)(=O)NC3(C)CC3)ccc2N2C1=NCC2C#Cc1cc2cccnc2[nH]1 (stereo not drawn) [Example 169, 1-((1H-pyrrolo[2,3-b]pyridin-2-yl)ethynyl)-4-methyl-N-(1-methylcyclopropyl)-5-oxo-1,2,4,5-tetrahydroimidazo[1,2-a]quinazoline-7-sulfonamide] | 100 to 1000
CN1C(=O)c2cc(S(=O)(=O)NC3(C)CC3)ccc2N2C1=NCC2C#Cc1ccn(C)c(=O)c1 (stereo not drawn) [Example 200, 4-methyl-1-((1-methyl-2-oxo-1,2-dihydropyridin-4-yl)ethynyl)-N-(1-methylcyclopropyl)-5-oxo-1,2,4,5-tetrahydroimidazo[1,2-a]quinazoline-7-sulfonamide] | 100 to 1000
CN1C(=O)c2cc(S(=O)(=O)NC3(C)CC3)ccc2N2C1=NC[C@H]2C#CC1(N(C)C)CC1 [Example 129, (R)-1-((1-(dimethylamino)cyclopropyl)ethynyl)-4-methyl-N-(1-methylcyclopropyl)-5-oxo-1,2,4,5-tetrahydroimidazo[1,2-a]quinazoline-7-sulfonamide] | < 100

The remaining lines, values ahead:

IC50 [nM] | SMILES
< 100 | [2H]C([2H])(c1cnn(C)c1)N1C(=O)c2cc(S(=O)(=O)NC3(C)CC3)c(F)cc2N2C1=N[C@H]1CCC[C@H]12 [Example 212, (7aS,10aR)-2-fluoro-6-((1-methyl-1H-pyrazol-4-yl)methyl-d2)-N-(1-methylcyclopropyl)-5-oxo-6,7a,8,9,10,10a-hexahydro-5H-cyclopenta[4,5]imidazo[1,2-a]quinazoline-3-sulfonamide]
100 to 1000 | CC(=O)N1CCn2ncc(CN3C(=O)c4cc(S(=O)(=O)NC5(C)CC5)ccc4N4C3=N[C@H]3CCC[C@H]34)c2C1 [Example 291, (7aS,10aR)-6-((5-acetyl-4,5,6,7-tetrahydropyrazolo[1,5-a]pyrazin-3-yl)methyl)-N-(1-methylcyclopropyl)-5-oxo-6,7a,8,9,10,10a-hexahydro-5H-cyclopenta[4,5]imidazo[1,2-a]quinazoline-3-sulfonamide]
100 to 1000 | CC(=O)NC[C@@H]1N=C2N(Cc3cnn(C)c3)C(=O)c3cc(S(=O)(=O)NC4(C)CC4)ccc3N2[C@@H]1C [Example 295, N-(((1R,2S)-1-methyl-4-((1-methyl-1H-pyrazol-4-yl)methyl)-7-(N-(1-methylcyclopropyl)sulfamoyl)-5-oxo-1,2,4,5-tetrahydroimidazo[1,2-a]quinazolin-2-yl)methyl)acetamide]
< 100 | CCN1C(=O)c2cc(S(=O)(=O)NC3(C)CC3)ccc2N2C1=NC[C@H]2C#Cc1c(F)cnn1C [Example 245, (R)-4-ethyl-1-((4-fluoro-1-methyl-1H-pyrazol-5-yl)ethynyl)-N-(1-methylcyclopropyl)-5-oxo-1,2,4,5-tetrahydroimidazo[1,2-a]quinazoline-7-sulfonamide]
< 100 | Cc1cc(C#C[C@@H]2CN=C3N(Cc4cnn(C)c4)C(=O)c4cc(S(=O)(=O)NC5(C)CC5)ccc4N32)n(C)n1 [Example 192, (R)-1-((1,3-dimethyl-1H-pyrazol-5-yl)ethynyl)-4-((1-methyl-1H-pyrazol-4-yl)methyl)-N-(1-methylcyclopropyl)-5-oxo-1,2,4,5-tetrahydroimidazo[1,2-a]quinazoline-7-sulfonamide]
< 100 | [2H]C([2H])(c1cnn(C)c1)N1C(=O)c2cc(S(=O)(=O)NC3(C)CC3)c(NCc3ccc(OC)nc3)cc2N2C1=N[C@H]1CCC[C@H]12 [Example 286, (7aS,10aR)-2-(((6-methoxypyridin-3-yl)methyl)amino)-6-((1-methyl-1H-pyrazol-4-yl)methyl-d2)-N-(1-methylcyclopropyl)-5-oxo-6,7a,8,9,10,10a-hexahydro-5H-cyclopenta[4,5]imidazo[1,2-a]quinazoline-3-sulfonamide]
< 100 | [2H]C([2H])(c1cnn(C)c1)N1C(=O)c2cc(S(=O)(=O)NC3(C)CC3)ccc2N2C1=NC[C@H]2COc1cnn(C)c1 [Example 108, (S)-4-((1-methyl-1H-pyrazol-4-yl)methyl-d2)-1-(((1-methyl-1H-pyrazol-4-yl)oxy)methyl)-N-(1-methylcyclopropyl)-5-oxo-1,2,4,5-tetrahydroimidazo[1,2-a]quinazoline-7-sulfonamide]
< 100 | Cn1cc(CN2C(=O)c3cc(S(=O)(=O)NC4(C)CC4)ccc3N3C2=NC[C@H]3c2ccccc2)cn1 [Example 144, (R)-4-((1-methyl-1H-pyrazol-4-yl)methyl)-N-(1-methylcyclopropyl)-5-oxo-1-phenyl-1,2,4,5-tetrahydroimidazo[1,2-a]quinazoline-7-sulfonamide]
1000 to 10000 | CN(C)C(=O)N1CC[C@@H]2N=C3N(Cc4cnn(C)c4)C(=O)c4cc(S(=O)(=O)NC5(C)CC5)ccc4N3[C@@H]2C1 [Example 161, (7aS,11aR)-N,N-dimethyl-6-((1-methyl-1H-pyrazol-4-yl)methyl)-3-(N-(1-methylcyclopropyl)sulfamoyl)-5-oxo-6,7a,8,9,11,1la-hexahydropyrido[4′,3′:4,5]imidazo[1,2-a]quinazoline-10(5H)-carboxamide]
< 100 | Cn1cc(CN2C(=O)c3cc(S(=O)(=O)NC4(C)CC4)ccc3N3C2=NC[C@H]3C#Cc2ccccc2)cn1 [Example 36, (R)-4-((1-methyl-1H-pyrazol-4-yl)methyl)-N-(1-methylcyclopropyl)-5-oxo-1-(phenylethynyl)-1,2,4,5-tetrahydroimidazo[1,2-a]quinazoline-7-sulfonamide]
